# Results reported in patent publication US5747461A, “Synergistic administration of cyclosporine and fructose diphosphate” (priority 1994, dated 1998).
# System: ex vivo stored hearts
# Test: Ex vivo cold ischemic storage and reperfusion of hearts (Langendorf apparatus)
# Set-up: species or system rat
# Method: Hearts were harvested from ketamine-anesthetized Sprague Dawley rats (350-450 gm body weight). Prior to harvesting the hearts, 17 randomly chosen rats received an intravenous bolus injection of FDP 450 mg/kg (10%). The hearts were removed, the left atria and aorta were attached to a modified Langendorf apparatus within 3 min, and the hearts were perfused ex vivo for 15 min at 37° C. with Krebs-Henseleit solution to which 0.07 mg/ml of FDP had been added. Rats in the control group (n=21) received an equivalent volume saline injection prior to surgery, and the hearts were perfused for 15 min with Krebs-Henseleit solution containing no FDP. Heart rates, systolic and diastolic pressures, cardiac outputs, and coronary blood flow during this period were measured and recorded.
# After the 15 minute perfusion period, the control hearts (n=21) were flushed with cardioplegic solution (Isolyte, K^+ 20 mEq/L). The FDP=treated hearts (n=17) were flushed with the same solution containing 1 mg/cc of FDP. The hearts were respectively placed in cold (4° C.) saline solution, with 0.9% NaCl or 0.9% NaCl containing 1 mg/ml FDP, and stored at 4° C. for 4 hours. After the 4 hour storage period was completed, the hearts were reperfused and warmed to 37° C. again. Seven hearts from each group were taken out of the Langendorf apparatus after 15 minutes and analyzed for myocardial ATP content. The remaining hearts (10 in the treatment group, and 14 in the control group) were measured in various ways (heartbeat rates, mean aortic and systolic pressures, and cardiac output) for 2 hours following the commencement of reperfusion.
smiles,measurement,setting,value
"O=C(COP(=O)(O)O)[C@@H](O)[C@H](O)[C@H](O)COP(=O)(O)O [FDP, fructose-1,6-diphosphate]",myocardial ATP content vs control group,"after 15 min of reperfusion, FIG. 5, p<0.01",higher
same,hearts still showing a heartbeat,"after 1 hour and 30 min of reperfusion following 4 h storage at 4° C., n=10, controls 5 of 14",all
same,post-storage heartbeat rate vs control group,"after 4 h cold storage, FIG. 1",significantly higher
same,peak systolic aortic pressures vs control group,"after 4 h cold storage, FIG. 2",significantly higher
same,mean pressures vs control group,"after 4 h cold storage, FIG. 3",significantly higher
same,cardiac output rates vs control group,"after 4 h cold storage, FIG. 4",significantly higher
